Data from paper PMC10296195, “C-Methylated Spermidine Derivatives: Convenient Syntheses and Antizyme-Related Effects” (Biomolecules, 2023).
Where two headings read alike, the source gives them in different places.

Target: T1, mOAZ1 (Mus musculus, UniProt P54369)
T1 construct: gene Oaz1; full-length mouse antizyme 1 (+1 frameshift product); expressed in E. coli Rosetta (DE3) from pET-15b-2c-His-mAZ (XhoI site)
Assay: isothermal titration calorimetry
Format: binding
Excerpt: isothermal titration calorimetry on mOAZ1

T1 sequence (P54369 2-227): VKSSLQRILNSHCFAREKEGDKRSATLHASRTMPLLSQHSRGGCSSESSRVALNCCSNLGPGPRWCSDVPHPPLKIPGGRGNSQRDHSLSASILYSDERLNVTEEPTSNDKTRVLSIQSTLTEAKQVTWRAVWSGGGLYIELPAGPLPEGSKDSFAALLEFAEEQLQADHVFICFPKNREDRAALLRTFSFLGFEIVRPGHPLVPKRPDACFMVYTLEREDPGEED

Question: What does the source list for `NCCCNCCCCNCCCN` [Spm]?
Answer: Kd (read-out: Ka ^b, M^-1 (converted)): 370 nM; Kd (read-out: Kd ^c): 370 nM
